Measurements published in paper PMC8508374, “In Silico Identification and Evaluation of Natural Products as Potential Tumor Necrosis Factor Function Inhibitors Using Advanced Enalos Asclepios KNIME Nodes” (International Journal of Molecular Sciences, 2021).

Molecular target: T1, TNF (TNF-TNFR1 binding) (Homo sapiens, UniProt P01375)
T1 construct: soluble TNF and its receptor TNFR1 in sandwich ELISA; human TNF-alpha (Peprotech) is printed for the cell assays; with Tumor necrosis factor receptor superfamily member 1A
T1 sequence (P01375 77-233): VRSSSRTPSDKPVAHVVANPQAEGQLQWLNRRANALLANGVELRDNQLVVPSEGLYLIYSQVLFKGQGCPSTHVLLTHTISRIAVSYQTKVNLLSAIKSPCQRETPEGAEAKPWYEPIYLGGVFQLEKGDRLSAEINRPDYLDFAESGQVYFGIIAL
T1 sequence (P19438 30-455 partner): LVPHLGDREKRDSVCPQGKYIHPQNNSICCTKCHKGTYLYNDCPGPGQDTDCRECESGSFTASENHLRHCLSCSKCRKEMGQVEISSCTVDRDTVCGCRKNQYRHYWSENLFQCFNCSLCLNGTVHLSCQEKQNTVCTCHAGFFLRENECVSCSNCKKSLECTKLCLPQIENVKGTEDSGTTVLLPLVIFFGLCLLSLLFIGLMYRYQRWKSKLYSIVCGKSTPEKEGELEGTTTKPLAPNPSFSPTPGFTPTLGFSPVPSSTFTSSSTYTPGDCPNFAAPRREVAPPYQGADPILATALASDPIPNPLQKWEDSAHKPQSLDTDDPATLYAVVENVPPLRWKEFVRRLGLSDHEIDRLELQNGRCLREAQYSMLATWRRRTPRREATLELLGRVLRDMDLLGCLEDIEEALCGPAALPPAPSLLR
Test: TNF-TNFR1 sandwich ELISA, inhibition of binding
Settings: inhibition of TNF-TNFR1 interaction

IC50: 90.2 ± 19 µM
Compound: Oc1ccc([C@@H]2c3c(O)cc4c(c3C3C2c2c(c(O)cc5c2[C@H](c2cc(O)cc(O)c2)[C@@H](c2ccc(O)cc2)O5)[C@H]3c2ccccc2)[C@H](c2cc(O)cc(O)c2)[C@@H](c2ccc(O)cc2)C4)cc1 (stereo partly shown) [Nepalensinol B]
